One assay relates to HCC-1143 cells. Put plainly: Cell viability, CellTiter-Glo, HCC-1143. The assay is classed as cell-based. As to conditions: Homo sapiens, HCC1143, 72 h; Table 2; cancer cell viability, 3 d treatment; read-out: HCC-1143 IC50. The procedure:
Given the known functions of CHOP in ER stress-induced apoptosis^16, 17 and in regulating cancer cell death,^6, 19, 20 the inventor investigated whether compound 1 affects the viability of TNBC cells. Three human TNBC cell lines, HCC-1806, HCC-1143, and HCC-38, were treated with doses of 1 ranging from 0.125 μM to 20 μM and their viability was assessed using the CellTiter-Glo assay, which measures intracellular ATP levels.
HCC-1806, HCC-1143, or HCC-38 cells were seeded at 3×10^3 cells/well in a 384-well plate and treated with compounds at the indicated concentrations. After 3 d treatment, the medium was aspirated and 20 μL/well of CellTiter-Glo reagent was added. Cell viability was measured with an EnVision multilabel plate reader. The IC50 value for cell viability of each compound was calculated with GraphPad Prism (La Jolla, Calif., US).

The test system of a further assay is CHOP protein. Put plainly: CHOP protein by Western blotting in HCC-1806 cells. The assay is classed as cell-based, human. Conditions: 10 μM, significant increases between 4 h and 24 h. On the procedure:
FIG. 3B is an image showing CHOP […] expression levels after treatment with a 5-nitrofuran-2-amide derivative. Cells were treated with compound 3d (10 μM) for the indicated times, and CHOP protein levels were analyzed by Western blotting. α-Tubulin was used as a loading control. The data shown are representative of 3 independent studies.
HCC-1806 cells were seeded in 60-mm dishes at 8×10^5 cells/dish and treated for the indicated times. Cells were then washed with PBS and lysed with lysis buffer (Cell Signaling Technology, Danvers, Mass., US) containing EDTA and phosphatase inhibitors. Aliquots of 20 μg total protein were separated on 7% SDS-PAGE gels (Life Technologies, Carlsbad, Calif., US) and transferred to PVDF membranes. The membranes were probed with primary antibodies followed by the appropriate HRP-conjugated secondary antibodies (goat anti-rabbit IgG and goat anti-mouse IgG, 1:3000; Santa Cruz Biotechnology, Santa Cruz, Calif., US). Blots were then developed. The primary antibodies and dilutions used were: CHOP (1:1000 no. MA1-250; Thermo, IL, US), cleaved caspase 3 (1:1000 no. 9661; Cell Signaling Technology), ATF4 (1:1000 no. 10835-1-AP; ProteinTech Group, IL, US), p-eIF2α (Ser51) (1:1000 no. 9721; Cell Signaling Technology), and α-tubulin (1:2000 no. SC-8035; Santa Cruz Biotechnology).

For another assay, the system named is ATF4 mRNA. Put plainly: ATF4 mRNA by qRT-PCR. The assay is classed as cell-based, human. As to conditions: 10 μM, indicated times. The source says:
Results are the means of 4 replicate wells and are representative of 3 independent studies. *P<0.05 by Student's t-test compared with DMSO-treated cells. Prolonged or severe ER stress activates CHOP expression primarily through the PERK branch of the unfolded protein response, although the IRE1α and ATF6 branches also contribute.^5, 18 The 5-nitrofuran-2-amide derivatives could induce CHOP expression by acting as an ER stressor that activates all three branches of unfolded protein response or by preferentially activating a select branch of unfolded protein response. To distinguish between these possibilities, the inventor investigated which branches of the unfolded protein response were affected by compound 3d. […] Total RNA was extracted using TRIzol reagent (Invitrogen, Carlsbad, Calif.) according to the manufacturer's protocol, and 2 μg of total RNA was reverse transcribed using a Superscript kit (Invitrogen). Real-time PCR was performed in 96-well format using SYBR Select Master Mix (Applied Biosystems, Foster City, Calif.) with an ABI 7500 PCR system (Applied Biosystems). The primer sequences used were: Human CHOP: SEQ ID NO: 1 [NT] and SEQ ID NO: 2 [NT]. Human ATF4: SEQ ID NO: 3 [NT] and SEQ ID NO: 4 [NT]. Human XBP1: SEQ ID NO: 5 [NT] and SEQ ID NO: 6 [NT]. Human Cyclophilin A: SEQ ID NO: 7 [NT] and SEQ ID NO: 8 [NT]. Human GAPDH: SEQ ID NO: 9 [NT] and SEQ ID NO: 10 [NT].
In general terms: In qPCR the cycle at which signal appears reflects the starting amount.

The subject of assay [1] is ER stress response elements (ERSE)-Luc reporter. Put plainly: ERSE-Luc reporter assay in HEK293 cells. The assay is classed as cell-based, human. Conditions: 10 μM, 24 h. The procedure:
FIG. 3G is a graph showing HEK293 cells stably expressing CHOP-Luc, ERSE-Luc, or UPRE-luc reporters were treated with DMSO, a 5-nitrofuran-2-amide derivative, or tunicamycin. HEK293 cells stably expressing CHOP-Luc, ERSE-Luc, or UPRE-luc reporters were treated with DMSO, compound 3d (10 μM), or Tm (1 μg/mL) for 24 h, and luciferase activity was measured using the Bright-Glo assay. Results are the means of 4 replicate wells and are representative of 3 independent experiments.
The inventor next asked whether the IRE1α and ATF6 branches of the unfolded protein response were also activated by compound 3d treatment of TNBC cells. […] XBP1 mRNA splicing, as measured by XBP1s levels, increased only slightly in the first 24 h after compound 3d treatment of HCC-1806 cells (from 11% of total XBP1 at 0 h to 15˜20% at 2˜24 h). […] Next, it was determined whether compound 3d activates the ATF6 pathway by evaluating its effect on the activity of an ER stress response elements (ERSE)-Luc reporter stably established in HEK293 cell line.
The HEK293T CHOP reporter cell line (CHOP-Luc) was previously described.^21 HEK293T cells were stably transfected with ERSE-Luciferase^25 and UPRE-Luciferase^23 reporters to generate ERSE-Luc and UPRE-Luc reporter cell lines, respectively. […] Luciferase activity was measured with a Bright-Glo kit 24 h later.
(In general: A reporter such as luciferase makes a cellular process visible.)

The text below walks through data of patent publication US20180360799A1, “Nitrofuran Derivatives That Induce Apoptosis in Breast Cancer Cells by Activating Protein Expression” (Oklahoma Medical Research Foundation, priority 2015, published 2018).

On to `CC1CCN(c2ccc(NC(=O)c3ccc([N+](=O)[O-])o3)cc2)CC1` [Compound 3d], for which, in the assay on HCC-1143 cells, the half-maximal inhibitory concentration (IC50) amounted to 2.1 µM. Also, in the assay with CHOP protein, the CHOP protein levels entry is given as “increased CHOP protein levels”. The “ATF4 expression, mRNA” value in the assay on ATF4 mRNA is “significantly increased ATF4 expression”. Besides, in assay [1], the “effect on ERSE-driven luciferase activity, in words” value is reported as “no significant effect”.

What is called IC50 is the concentration at which inhibition is half-maximal.
